Assay results reported in article doi:10.1101/2021.09.27.461913v1, “Interactions of cytosolic termini of the Jen1 monocarboxylate transporter are critical for trafficking, transport activity and endocytosis” (biorxiv, 2021).

How the values were obtained:
Assay in all cases: radiolabelled [3H]-xanthine uptake in intact  cells
Type in all cases: cell-based, Aspergillus nidulans
Conditions in all cases: labelled compound
[1] = tested on: T1, UapA/Jen1CT33
T1 construct: Jen1 residues 584-616 fused C-terminally to intact UapA, GFP-tagged, GAL promoter, in S. cerevisiae; one polypeptide; with Carboxylic acid transporter protein homolog

[2] = tested on: T2, UapA/Jen1NT94
T2 construct: Jen1 residues 1-94 fused N-terminally to intact UapA, GFP-tagged, GAL promoter, in S. cerevisiae; one polypeptide; with Carboxylic acid transporter protein homolog

[3] = tested on: T3, UapA/Jen1NT94-CT33
T3 construct: Jen1 1-94 / intact UapA / Jen1 584-616, GFP-tagged, GAL promoter, in S. cerevisiae; one polypeptide; with Carboxylic acid transporter protein homolog; Carboxylic acid transporter protein homolog

O=c1[nH]c(=O)c2[nH]cnc2[nH]1 [xanthine]
Km [1]: 10 ± 3 µM | Km [2]: 5 ± 2 µM | Km [3]: 101 ± 10 µM
